One experiment relates to calpain. As to the kind of experiment: MCAO: spectrin BD level (calpain activation) in brain tissues. Type of experiment: in vivo, mouse. The note with it: MCAO WT mice; gabapentin posttreatment; peptide 200 μg/kg i.p. twice. The source says:
α2δ-1 and α2δ-1-bound NMDARs contribute to MCAO-induced calpain activation in brain tissues: Cerebral ischemia increases calpain activity, and calpain inhibition is neuroprotective against ischemia-induced brain injury. Spectrin is highly sensitive to proteolysis by calpain, and the stable αIIspectrin breakdown product (spectrin BD, 150 kDa) is commonly used as a biochemical assay for calpain activation.

The subject of the next experiment is cleaved caspase-3. In words: MCAO: cleaved caspase-3 protein levels in brain tissues. It is filed as in vivo, mouse. The note with it: MCAO mice; cortex, hippocampus, striatum. The source says: (C and D) Original gel images (C, two pairs of samples) and quantification (D) of cleaved caspase-3 protein levels in the cerebral cortex, hippocampus, and striatum from MCAO mice treated with α2δ-1Tat peptide or control peptide (n=8 mice per group). Data are shown as means±SEM. *p<0.05 compared with the sham group. #p<0.05 compared with MCAO+vehicle group or control peptide group in the same brain region (repeated measures ANOVA for panel B; paired Student's t-test for panel D).

For a further experiment, the system named is morphine-treated rats. In words: Opioid-induced hyperalgesia and analgesic tolerance in rats. The note with it: co-treatment: gabapentin 100 mg/kg i.p. or peptide 1 μg intrathecal.
Experiment [1] deals with T1, GluN1 and α2δ-1 in hypothalamic synaptosomes (Rattus norvegicus, UniProt P35439+Q00959+Q00960).
T1 construct: from tissue; host or cells: rat hypothalamic slices containing the PVN (Sprague-Dawley, WKY, SHR) and synaptosomes made from them
In words: Protein level analysis in hypothalamic synaptosomes (Ang II). It is filed as cell-based. On the procedure: Protein level analysis in hypothalamic synaptosomes: The hypothalamic tissues containing the PVN (pooled from 2 rats per sample) were homogenized using 10 volumes of ice-cold HEPES-buffered sucrose (0.32 mol/L sucrose, 1 mmol/L EGTA, and 4 mmol/L HEPES at pH 7.4) containing the protease inhibitor cocktail (Sigma-Aldrich). The homogenate was centrifuged at 2,000×g for 10 min at 4° C. to remove the nuclei and large debris. The supernatant was centrifuged at 20,000×g for 30 min to obtain the crude synaptosomal fraction. The synaptosomal pellet was lysed via hypo-osmotic shock in 9 volumes of ice-cold HEPES-buffer with the protease inhibitor cocktail for 30 min. The lysate was centrifuged at 25,000×g for 45 min at 4° C. to obtain the synaptosomal membrane fraction (Chen et al., 2018), which was then dissolved in sodium dodecyl sulfate sample buffer at a final concentration of 0.25 μg/μl for immunoblotting.
Western blotting was used to quantify GluN1 and α2δ-1 protein levels in the hypothalamic synaptosome. Fifteen micrograms of total proteins from each sample was loaded and separated by 4-15% Tris-HCl sodium dodecyl sulfate-polyacrylamide gel electrophoresis (#456-1086, Bio-Rad, Hercules, Calif.). The resolved proteins were transferred to a polyvinylidene difluoride membrane (Millipore). The membrane was treated with 5% nonfat dry milk in Tris-buffered saline (TBS) at 25° C. for 1 h and then incubated in TBS supplemented with 0.1% Triton X-100, 1% bovine serum albumin, and rabbit anti-GluN1 (#G8913, 1:100; Sigma, RRID: AB_259978), rabbit anti-α2δ-1 (#ACC-015, 1:500, Alomone, Jerusalem, Israel, RRID: AB_2039785), and mouse anti-PSD-95 (#75-348, 1:1,000, NeuroMab, Davis, Calif., RRID: AB_2315909) antibodies overnight at 4° C. The membrane was washed 3 times and then incubated with horseradish peroxidase-conjugated anti-rabbit IgG (1:5,000; Jackson ImmunoResearch, West Grove, Pa.) for 1 h at room temperature. The protein bands were detected with an enhanced chemiluminescence kit (Thermo Fisher Scientific, Waltham, Mass.), and protein band intensity was visualized and quantified using an Odyssey Fc Imager (LI-COR Biosciences, Lincoln, Nebr.). The protein levels of GluN1 and α2δ-1 were normalized by the PSD-95 protein band on the same gel.

A further experiment has as its system anesthetized rats. As to the kind of experiment: PVN microinjection and recording of RSNA and ABP (Ang II). Type of experiment: in vivo, rat. On the procedure:
PVN microinjection and recording of renal sympathetic nerve activity: Rats were anesthetized with a mixture of α-chloralose (60 mg/kg, i.p.) and urethane (800 mg/kg, i.p.). A retroperitoneal incision was made, and a branch of the left renal postganglionic sympathetic nerve was isolated under a surgical microscope. The renal sympathetic nerve was cut distally to ensure that afferent nerve activity was not recorded. The renal sympathetic nerve activity (RSNA), arterial blood pressure (ABP), and heart rate (HR) were recorded using a 1401-PLUS analog-to-digital converter and Spike2 system (Cambridge Electronic Design, Cambridge, UK). A microinjection pipette (tip diameter, 20-30 μm) was advanced into the PVN according to the following stereotactic coordinates: 1.6-2.0 mm caudal to the bregma, 0.5 mm lateral to the midline, and 7.0-7.5 mm ventral to the dura. The microinjection was done using a calibrated microinjection system (Nanoject II; Drummond Scientific) and monitored using a surgical microscope as described previously (Li and Pan, 2006, 2007; Qiao et al., 2017). Ang II (200 μmol/L, 50 nl) was microinjected into the PVN to observe the change in RSNA and ABP in the absence or presence of α2δ-1Tat peptide (100 μmol/L, 50 nl) or control peptide (100 μmol/L, 50 nl). The microinjections were separated by 10- to 15-min intervals to allow recovery of the response. To determine the location of the injection site and diffusion of the drugs in the PVN, 5% rhodamine-labeled fluorescent microspheres (0.04 μm; Molecular Probes) were included in the injection solution (Li and Pan, 2006, 2007; Qiao et al., 2017).

The mark [2] stands for this setting: Ang II 2 μmol/L for 60 min vs vehicle.
Setting [3] is: peptide 1 μmol/L for 30 min, vs control peptide.

T1 sequence (Q00959 20-1464 limits assumed, other chains not shown): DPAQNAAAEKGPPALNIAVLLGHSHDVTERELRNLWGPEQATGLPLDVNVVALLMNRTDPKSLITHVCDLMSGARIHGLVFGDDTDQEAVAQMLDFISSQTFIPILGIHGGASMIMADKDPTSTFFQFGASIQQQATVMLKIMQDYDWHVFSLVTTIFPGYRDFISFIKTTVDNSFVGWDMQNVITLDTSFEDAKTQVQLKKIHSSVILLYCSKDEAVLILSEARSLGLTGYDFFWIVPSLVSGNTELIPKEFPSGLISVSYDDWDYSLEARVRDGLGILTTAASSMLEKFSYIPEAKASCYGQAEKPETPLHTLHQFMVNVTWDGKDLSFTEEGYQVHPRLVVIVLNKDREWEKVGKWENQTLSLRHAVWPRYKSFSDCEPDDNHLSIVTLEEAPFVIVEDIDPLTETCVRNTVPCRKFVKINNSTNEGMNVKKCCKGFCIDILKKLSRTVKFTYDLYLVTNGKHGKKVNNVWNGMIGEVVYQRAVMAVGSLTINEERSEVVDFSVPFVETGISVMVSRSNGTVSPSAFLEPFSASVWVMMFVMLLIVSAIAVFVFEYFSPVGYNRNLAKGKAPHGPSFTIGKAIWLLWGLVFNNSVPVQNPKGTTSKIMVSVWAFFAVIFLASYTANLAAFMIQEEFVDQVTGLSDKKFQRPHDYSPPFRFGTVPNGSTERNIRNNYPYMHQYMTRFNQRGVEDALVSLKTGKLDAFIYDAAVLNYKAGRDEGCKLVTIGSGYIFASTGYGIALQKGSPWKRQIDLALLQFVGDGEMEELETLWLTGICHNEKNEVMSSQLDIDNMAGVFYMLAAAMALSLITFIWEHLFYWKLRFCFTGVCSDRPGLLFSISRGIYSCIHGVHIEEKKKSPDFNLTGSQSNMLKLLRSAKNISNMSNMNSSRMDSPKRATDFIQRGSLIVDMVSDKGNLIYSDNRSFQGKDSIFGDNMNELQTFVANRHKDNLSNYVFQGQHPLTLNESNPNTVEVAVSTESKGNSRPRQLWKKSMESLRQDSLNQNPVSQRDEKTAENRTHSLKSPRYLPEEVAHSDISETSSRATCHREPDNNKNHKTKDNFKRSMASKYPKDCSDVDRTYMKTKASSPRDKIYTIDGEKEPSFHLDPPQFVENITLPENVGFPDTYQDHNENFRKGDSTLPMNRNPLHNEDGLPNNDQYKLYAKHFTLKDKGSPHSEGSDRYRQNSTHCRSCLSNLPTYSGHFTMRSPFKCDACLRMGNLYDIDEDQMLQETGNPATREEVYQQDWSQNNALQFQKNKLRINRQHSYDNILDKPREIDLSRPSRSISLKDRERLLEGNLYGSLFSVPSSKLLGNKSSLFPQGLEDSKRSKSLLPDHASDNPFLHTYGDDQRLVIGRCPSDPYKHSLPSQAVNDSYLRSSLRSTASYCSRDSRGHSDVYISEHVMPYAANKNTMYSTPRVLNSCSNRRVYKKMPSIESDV
T1 sequence (Q00960 27-1482, other chains not shown): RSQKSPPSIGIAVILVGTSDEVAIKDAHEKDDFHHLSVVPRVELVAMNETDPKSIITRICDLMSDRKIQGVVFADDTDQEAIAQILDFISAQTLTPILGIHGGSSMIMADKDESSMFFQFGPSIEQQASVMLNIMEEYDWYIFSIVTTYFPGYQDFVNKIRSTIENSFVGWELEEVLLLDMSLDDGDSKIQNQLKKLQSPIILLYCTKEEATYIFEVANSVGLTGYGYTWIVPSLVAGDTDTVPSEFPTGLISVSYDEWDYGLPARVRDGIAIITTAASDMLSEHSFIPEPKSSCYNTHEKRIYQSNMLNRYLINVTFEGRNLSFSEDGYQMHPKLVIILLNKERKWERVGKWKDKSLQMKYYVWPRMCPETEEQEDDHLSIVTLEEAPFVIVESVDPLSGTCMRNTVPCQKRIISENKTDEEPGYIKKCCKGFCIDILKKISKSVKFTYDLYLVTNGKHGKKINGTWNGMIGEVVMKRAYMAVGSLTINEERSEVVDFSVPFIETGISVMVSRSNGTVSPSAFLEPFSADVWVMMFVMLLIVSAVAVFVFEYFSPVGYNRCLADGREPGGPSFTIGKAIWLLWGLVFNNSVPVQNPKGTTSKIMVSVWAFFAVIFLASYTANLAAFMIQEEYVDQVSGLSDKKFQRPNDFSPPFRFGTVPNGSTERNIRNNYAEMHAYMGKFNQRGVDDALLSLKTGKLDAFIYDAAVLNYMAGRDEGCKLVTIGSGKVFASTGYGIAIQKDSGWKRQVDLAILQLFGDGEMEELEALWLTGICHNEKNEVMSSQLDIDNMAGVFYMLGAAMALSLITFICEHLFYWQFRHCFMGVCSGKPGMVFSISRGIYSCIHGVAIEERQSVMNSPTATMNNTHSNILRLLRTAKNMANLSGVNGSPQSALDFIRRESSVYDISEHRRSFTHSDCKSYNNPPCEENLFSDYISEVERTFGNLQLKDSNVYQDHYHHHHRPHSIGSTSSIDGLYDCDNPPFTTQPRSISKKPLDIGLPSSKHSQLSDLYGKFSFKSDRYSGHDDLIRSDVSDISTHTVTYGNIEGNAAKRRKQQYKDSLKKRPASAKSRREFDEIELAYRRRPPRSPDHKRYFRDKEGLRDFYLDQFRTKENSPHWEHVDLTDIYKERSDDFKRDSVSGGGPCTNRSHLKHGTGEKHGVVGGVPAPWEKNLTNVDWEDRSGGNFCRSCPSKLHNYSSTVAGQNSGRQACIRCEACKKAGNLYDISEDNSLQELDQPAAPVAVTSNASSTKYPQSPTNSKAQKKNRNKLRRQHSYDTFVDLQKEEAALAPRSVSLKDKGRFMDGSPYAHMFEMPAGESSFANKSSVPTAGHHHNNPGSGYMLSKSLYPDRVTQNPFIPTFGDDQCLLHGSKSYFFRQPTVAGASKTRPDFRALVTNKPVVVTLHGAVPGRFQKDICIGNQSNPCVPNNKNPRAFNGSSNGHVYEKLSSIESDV

For the compound `NCC1(CC(=O)O)CCCCC1` [gabapentin], the “spectrin BD level in cortex, hippocampus and striatum” value with calpain was “significantly reduced”. For the same compound, in the experiment with cleaved caspase-3, the “MCAO-induced apoptotic signaling (cleaved caspase-3)” value is “suppresses”. Further, in the experiment with morphine-treated rats, the “reduction in baseline withdrawal thresholds induced by chronic morphine injections” value is given as “completely blocked” and the “reduction in the analgesic effect of morphine” value is on record as “substantially attenuated”.

For “Ang II: angiotensin II, obtained from Sigma (DRVYIHPF; Angiotensin-2; UniProt P01019 25-32, looked up)”, in experiment [1] (setting [2]), the “protein level of GluN1 in hypothalamic synaptosomes” value was “significantly increased” and the “protein level of α2δ-1 in hypothalamic synaptosomes” value was “significantly increased”. Further, the “RSNA and mean ABP” value in the experiment with anesthetized rats (Ang II 200 μmol/L, 50 nl into the PVN) is listed as “significantly increased”.

Turning to “YGRKKRRQRRRVSGLNPSLWSIFGLQFILLWLVSGSRHYLW (a2d1 peptide) [α2δ-1Tat peptide]”, the “spectrin BD level in cortex, hippocampus and striatum” value in the experiment on calpain is “significantly reduced”. For the same compound, the “MCAO-induced apoptotic signaling (cleaved caspase-3)” value in the experiment with cleaved caspase-3 is given as “suppresses”. In experiment [1] (setting [3]), the “effect of Ang II on the protein level of GluN1” value is reported as “significantly attenuated” and the “effect of Ang II on the protein level of α2δ-1” value was “significantly attenuated”. In the experiment with anesthetized rats (peptides 100 μmol/L, 50 nl), the “ABP and RSNA responses to Ang II after prior peptide microinjection into the PVN” value is “failed to significantly increase”. Besides, in the experiment with morphine-treated rats, the “reduction in baseline withdrawal thresholds induced by chronic morphine injections” value was “completely blocked” and the “reduction in the analgesic effect of morphine” value is “substantially attenuated”.

The record behind these values is patent publication US11787839B2, “Targeting α2δ-1-bound glutamate receptors for treating diseases and disorders” (Board of Regents, The University of Texas System, priority 2017, dated 2023).
